From patent publication US20090048301A1 (IMCLONE SYSTEMS INCORPORATED, priority 2003, published 2009)

Test system: bovine tubulin
Assay: In vitro tubulin polymerization assay (turbidity at 340 nm)
Format: biochemical
Conditions: 10 μM compound, 30 minute data point, vs 1% DMSO control
Method: Briefly, tubulin polymerization is a kinetic process that is temperature-dependent and requires GTP and was performed as follows. Soluble tubulin dimers polymerize into microtubules upon warming, and polymerization in vitro correlates with an increase in turbidity (measured at 340 nm). Lyophilized bovine tubulin (HTS Tubulin—97% tubulin, <3% MAPs—Cytoskeleton Inc.) was ressuspended in G-PEM buffer (80 mM PIPES pH 7, 1 mM EGTA, 1 mM MgCl2, 1 mM GTP, 5% glycerol) to a final concentration of 3 mg/ml and kept at 4° C. Compounds in 100× stock solutions in DMSO were dotted to pre-warmed 96-well plates (Corning Costar 3696), the plates were transferred to a 37° C. plate reader (SPECTRAmax Plus, Molecular Devices), cold tubulin was added to the wells, and the plates were shaken for mixing. The absorbance at 340 nm was determined at one minute intervals for 30 minutes. Kinetic curves with 30 points each were collected for each compound, and the dynamic range was between 0 and 0.4 OD units. The percentage inhibition values were calculated using the 30 minute data point and based on control samples (treated with 1% DMSO only). The assay is a modified version of the HTS kit sold by Cytoskeleton (1830 S. Acoma St., Denver, Colo.), adapted to maximize throughput and reduce time, without reduction in dynamic range or sensitivity, while retaining the ability to detect compounds that inhibit or enhance tubulin polymerization.
Tubulin polymerization is a kinetic process that is temperature-dependent and requires GTP. Soluble tubulin dimers polymerize into microtubules upon warming, and polymerization in vitro correlates with an increase in turbidity (measured at 340 nm). Liophilized bovine tubulin (HTS Tubulin—97% tubulin, <3% MAPs—Cytoskeleton Inc.) was ressuspended in G-PEM buffer (80 mM PIPES pH 7, 1 mM EGTA, 1 mM MgCl2, 1 mM GTP, 5% glycerol) to a final concentration of 3 mg/ml and kept at 4° C. Compounds in 100× stock solutions in DMSO were dotted to pre-warmed 96-well plates (Corning Costar 3696), the plates were immediately transferred to a 37° C. plate reader (SPECTRAmax Plus, Molecular Devices), cold tubulin was added to the wells, plates were shaken for mixing, and absorbance at 340 nm was read every minute for 30 minutes. Kinetic curves with 30 points each were collected for each compound, and the dynamic range was between 0 and 0.4 OD units. Percentage inhibition values were calculated using the 30 minute data point, based on control samples (treated with 1% DMSO only). This assay is a modified version of the HTS kit sold by Cytoskeleton, adapted to maximize throughput and reduce time, without reduction in dynamic range or sensitivity, while retaining the ability to detect compounds that inhibit or enhance tubulin polymerization.

Compound	Tubulin Assay: percent inhibition at 10 μM based on 30 minute data
COc1cc(CNc2cc(C(F)(F)F)ccc2-c2nnc(Nc3ccc4c(c3)OCO4)[nH]2)cc(OC)c1 [Compound 126, Benzo[1,3]dioxol-5-yl-{5-[2-(3,5-dimethoxy-benzylamino)-4-trifluoromethyl-phenyl]-4H-[1,2,4]triazol-3-yl}-amine]	93%
O=[N+]([O-])c1ccccc1-c1nnc(Nc2ccc3c(c2)OCCO3)[nH]1 [Compound 127a, (2,3-Dihydro-benzo[1,4]dioxin-6-yl)-[5-(2-nitro-phenyl)-4H-[1,2,4]triazol-3-yl]-amine]	22%
Nc1ccccc1-c1nnc(Nc2ccc3c(c2)OCCO3)[nH]1 [Compound 127b, [5-(2-amino-phenyl)-4H-[1,2,4]triazol-3-yl]-(2,3-dihydro-benzo[1,4]dioxin-6-yl)-amine]	20%
N#Cc1ccc(S(=O)(=O)Nc2ccccc2-c2nnc(Nc3ccc4c(c3)OCCO4)[nH]2)cc1 [Compound 128, 4-Cyano-N-{2-[5-(2,3-dihydro-benzo[1,4]dioxin-6-ylamino)-4H-[1,2,4]triazol-3-yl]-phenyl}-benzenesulfonamide]	42%
CS(=O)(=O)c1ccc(-c2nnc(-c3ccccc3NCC3CCOC3)[nH]2)cc1 (stereo not drawn) [Compound 134, {2-[5-(4-Methanesulfonyl-phenyl)-4H-[1,2,4]triazol-3-yl]-phenyl}-(tetrahydro-furan-3-ylmethyl)-amine]	34%
COc1cc(CNc2ccccc2-c2nnc(-c3cccc(OC)c3)[nH]2)cc(OC)c1 [Compound 135, (3,5-Dimethoxy-benzyl)-{2-[5-(3-methoxy-phenyl)-4H-[1,2,4]triazol-3-yl]-phenyl}-amine]	23%
COc1cccc(-c2nnc(-c3ccccc3NCc3ccc4[nH]cnc4c3)[nH]2)c1 [Compound 137, (1H-Benzoimidazol-5-ylmethyl)-{2-[5-(3-methoxy-phenyl)-4H-[1,2,4]triazol-3-yl]-phenyl}-amine]	28%
FC(F)(F)c1ccc(-c2nnc(-c3ccccc3NCc3ccc4c(c3)OCO4)[nH]2)cc1 [Compound 138, Benzo[1,3]dioxol-5-ylmethyl-{2-[5-(4-trifluoromethyl-phenyl)-4H-[1,2,4]triazol-3-yl]-phenyl}-amine]	28%
FC(F)(F)c1ccc(-c2nnc(-c3ccccc3NCc3ccc4c(c3)OCCO4)[nH]2)cc1 [Compound 139, (2,3-Dihydro-benzo[1,4]dioxin-6-ylmethyl)-{2-[5-(4-trifluoromethyl-phenyl)-4H-[1,2,4]triazol-3-yl]-phenyl}-amine]	21%
COc1cc(CNc2ccccc2-c2nnc(-c3ccc(C(F)(F)F)cc3)[nH]2)cc(OC)c1 [Compound 140, (3,5-Dimethoxy-benzyl)-{2-[5-(4-trifluoromethyl-phenyl)-4H-[1,2,4]triazol-3-yl]-phenyl}-amine]	20%
FC(F)(F)Oc1cccc(-c2nnc(-c3ccccc3NCc3ccc4c(c3)OCCO4)[nH]2)c1 [Compound 142, (2,3-Dihydro-benzo[1,4]dioxin-6-ylmethyl)-{2-[5-(3-trifluoromethoxy-phenyl)-4H-[1,2,4]triazol-3-yl]-phenyl}-amine]	20%
COc1cc(CNc2ccccc2-c2nnc(-c3cccc(OC(F)(F)F)c3)[nH]2)cc(OC)c1 [Compound 143, (3,5-Dimethoxy-benzyl)-{2-[5-(3-trifluoromethoxy-phenyl)-4H-[1,2,4]triazol-3-yl]-phenyl}-amine]	46%
FC(F)(F)Oc1cccc(-c2nnc(-c3ccccc3NCc3ccc4[nH]cnc4c3)[nH]2)c1 [Compound 144, (1H-Benzoimidazol-5-ylmethyl)-{2-[5-(3-trifluoromethoxy-phenyl)-4H-[1,2,4]triazol-3-yl]-phenyl}-amine]	86%
Brc1ccc(-c2nnc(-c3ccccc3NCc3ccc4cn[nH]c4c3)[nH]2)cc1 [Compound 146, {2-[5-(4-Bromo-phenyl)-4H-[1,2,4]triazol-3-yl]-phenyl}-(1H-indazol-6-ylmethyl)-amine]	39%
Brc1ccc(-c2nnc(-c3ccccc3NCc3ccc4[nH]cnc4c3)[nH]2)cc1 [Compound 147, (1H-Benzoimidazol-5-ylmethyl)-{2-[5-(4-bromo-phenyl)-4H-[1,2,4]triazol-3-yl]-phenyl}-amine]	43%
COc1cccc(-c2nnc(-c3ccccc3NCc3ccc4cn[nH]c4c3)[nH]2)c1 [Compound 149, (1H-Indazol-6-ylmethyl)-{2-[5-(3-methoxy-phenyl)-4H-[1,2,4]triazol-3-yl]-phenyl}-amine]	26%
FC(F)(F)c1cccc(-c2nnc(-c3ccccc3NCc3ccc4c(c3)OCCO4)[nH]2)c1 [Compound 150, (2,3-Dihydro-benzo[1,4]dioxin-6-ylmethyl)-{2-[5-(3-trifluoromethyl-phenyl)-4H-[1,2,4]triazol-3-yl]-phenyl}-amine]	24%
COc1cc(CNc2ccccc2-c2nnc(-c3cccc(Br)c3)[nH]2)cc(OC)c1 [Compound 151, {2-[5-(3-Bromo-phenyl)-4H-[1,2,4]triazol-3-yl]-phenyl}-(3,5-dimethoxy-benzyl)-amine]	42%
FC(F)(F)c1cccc(-c2nnc(-c3ccccc3NCc3ccc4c(c3)OCO4)[nH]2)c1 [Compound 152, Benzo[1,3]dioxol-5-ylmethyl-{2-[5-(3-trifluoromethyl-phenyl)-4H-[1,2,4]triazol-3-yl]-phenyl}-amine]	73%
CS(=O)(=O)c1ccc(-c2nnc(-c3ccc(C(F)(F)F)cc3NCc3ccncc3)[nH]2)cc1 [Compound 153, {2-[5-(4-Methanesulfonyl-phenyl)-4H-[1,2,4]triazol-3-yl]-5-trifluoromethyl-phenyl}-pyridin-4-ylmethyl-amine]	54%
COc1ccc(CNc2ncccc2-c2nnc(Nc3ccc4c(c3)OCO4)o2)cc1OC [Compound 158, {3-[5-(Benzo[1,3]dioxol-5-ylamino)-[1,3,4]oxadiazol-2-yl]-pyridin-2-yl}-(3,4-dimethoxy-benzyl)-amine]	90%
COc1cc(Nc2nnc(-c3cccnc3NCc3ccc(F)c(F)c3)o2)cc(OC)c1OC [Compound 167, (3,4-Difluoro-benzyl)-{3-[5-(3,4,5-trimethoxy-phenylamino)-[1,3,4]oxadiazol-2-yl]-pyridin-2-yl}-amine]	99%
Fc1cccc(CNc2ncccc2-c2nnc(Nc3ccc4c(c3)OCO4)o2)c1 [Compound 171, {3-[5-(Benzo[1,3]dioxol-5-ylamino)-[1,3,4]oxadiazol-2-yl]-pyridin-2-yl}-(3-fluoro-benzyl)-amine]	91%
c1cnc(NCC2CCCO2)c(-c2nnc(Nc3ccc4c(c3)OCO4)o2)c1 (stereo not drawn) [Compound 174, {3-[5-(Benzo[1,3]dioxol-5-ylamino)-[1,3,4]oxadiazol-2-yl]-pyridin-2-yl}-(tetrahydro-furan-2-ylmethyl)-amine]	64%
